From patent publication US10835533B2, “1 -((3S,4R)-4-(3-fluorophenyl)-1-(2-methoxyethyl)pyrrolidin-3-yl)-3-(4-methyl-3-(2-methylpyrimidin-5-yl)-1-phenyl-1H-pyrazol-5-yl)urea as a TrkA kinase inhibitor” (Array BioPharma Inc., priority 2014, dated 2020)

Assays:
Type in all cases: in vitro ADME
[1] = Liver microsomal clearance, monkey; settings: pH 7.4; Monkey liver microsomes; 1 mg/mL; 20 minutes
Experimental: (§1) The predicted hepatic clearance (CLh) value was calculated by scaling the in vitro half-life (t1/2) for stability of the compound in liver microsomes (1 mg/mL; 20 minutes) using the physical and physiological scaling factors used to predict intrinsic clearance (CLint) and hepatic clearance (CLhep) listed in Table 2 and employed in the following equations: […]
(§2) where D is the amount of cytochrome P450-related protein per mass of liver, W is the average mass of liver present per weight of animal, C is the liver microsomal concentration, and Q is the species-dependent hepatic blood flow.
(§3) A 100 mM potassium phosphate assay buffer solution (KPB) was prepared as follows. Both KH2PO4 and K2HPO4 were dissolved separately in reagent grade water resulting in final concentrations 100 mM. A 75:25 mixture v/v of K2HPO4:KH2PO4 was prepared and the pH of the solution was adjusted to 7.4 using diluted HCl or diluted NaOH solutions. Stock solutions of Compound 1, Compound 2 and Compound 3 were prepared at 10 mM (active compound) in DMSO. The stock solution was diluted immediately before use to 2.5 μM using the KPB solution to create the working standard. All test compounds were completely soluble in DMSO by visual inspection at room temperature. The NADPH-regenerating solution (NRS) was prepared on the day of analysis by diluting one volume of 17 mg/mL NADP^+ with one volume of 78 mg/mL glucose-6-phosphate (both prepared in KPB, pH 7.4) and 7.9 volumes of 20 mM MgCl2. The final concentrations of NADP^+ and glucose-6-phosphate were 1.7 mg/mL and 7.8 mg/mL, respectively. […]
(§4) All calculations were performed using BioAssay Enterprise. The mean peak area ratios were calculated by averaging the peak area ratios (n=2) of Compound 1, Compound 2, Compound 3, and the internal standard for each sample. Percent remaining was calculated by determining the ratio of the peak area ratio at each time point to the peak area ratio of the time-zero samples. The rate of loss of test compound (km) was determined by linear regression of −ln(f(t)) versus time. […] The t1/2 was determined dividing ln(2) by km. […]

[2] = Liver microsomal clearance, human; settings: pH 7.4; Human liver microsomes; 1 mg/mL; 20 minutes
Experimental: as §1, §2, §3, §4

[3] = Liver microsomal clearance, dog; settings: pH 7.4; Dog liver microsomes; 1 mg/mL; 20 minutes
Experimental: as §1, §2, §3, §4

Structure (SMILES) | CLhep predicted at 1 μM [1] [mL/min/kg] | CLhep predicted at 1 μM [2] [mL/min/kg] | CLhep predicted at 1 μM [3] [mL/min/kg]
COCCN1C[C@@H](NC(=O)Nc2c(C)c(-c3cnn(C)c3)nn2-c2ccccc2)[C@H](c2ccc(F)cc2)C1 [Compound 3, 1-(1′,4-dimethyl-1-phenyl-1H,1′H-[3,4′-bipyrazol]-5-yl)-3-((3S,4R)-4-(4-fluorophenyl)-1-(2-methoxyethyl)pyrrolidin-3-yl)urea] | 32 | 10 | 23
COCCN1C[C@@H](NC(=O)Nc2c(C)c(-c3cnc(C)nc3)nn2-c2ccccc2)[C@H](c2cccc(F)c2)C1 [Compound 1, 1-((3S,4R)-4-(3-fluorophenyl)-1-(2-methoxyethyl)pyrrolidin-3-yl)-3-(4-methyl-3-(2-methylpyrimidin-5-yl)-1-phenyl-1H-pyrazol-5-yl)urea] | 33 | 9.8 | 24
COCCN1C[C@@H](NC(=O)Nc2c(C)c(-c3cnc(C)nc3)nn2-c2ccccc2)[C@H](c2ccc(F)c(F)c2)C1 [Compound 2, 1-((3S,4R)-4-(3,4-difluorophenyl)-1-(2-methoxyethyl)pyrrolidin-3-yl)-3-(4-methyl-3-(2-methylpyrimidin-5-yl)-1-phenyl-1H-pyrazol-5-yl)urea] | 38 | 14 | 26
